From patent publication US8658661B2, “Oxadiazole inhibitors of leukotriene production” (Boehringer Ingelheim International GmbH, priority 2010, dated 2014)
Where two headings read alike, the source gives them in different places.

Legend:
[1] = target: T1, recombinant human FLAP protein (Homo sapiens, UniProt P20292); test: FLAP binding assay (SPA, displacement of [125I]L-691,831)
T1 construct: made in house; host or cells: Sf9 insect cells (100,000×g membrane pellet used)
T1 sequence (P20292 1-161): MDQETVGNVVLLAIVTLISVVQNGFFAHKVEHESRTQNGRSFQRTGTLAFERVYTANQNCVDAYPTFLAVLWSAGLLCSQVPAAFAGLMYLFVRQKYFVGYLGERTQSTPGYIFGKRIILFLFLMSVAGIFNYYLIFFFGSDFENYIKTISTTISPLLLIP
Experimental: Assessment of Biological Properties 1. Binding Assay
Compounds are assessed for the ability to bind to FLAP in a binding assay that measures compound-specific displacement of an iodinated (^125I) FLAP inhibitor via a Scintillation Proximity Assay format (adapted from S. Charleson et al., Mol. Pharmacol., 1992, 41, 873-879).
Cell pellets produced from sf9 insect cells expressing recombinant human FLAP protein are resuspended in buffer A [15 mM Tris-HCl (pH 7.5), 2 mM MgCl2, 0.3 mM EDTA, 1 mM PMSF]. The cells are lysed with a Dounce homogenizer and the material is centrifuged at 10,000×g for 10 minutes. The supernatant is then collected and centrifuged at 100,000×g for 60 minutes. To prepare membrane protein for an assay, an aliquot of the 100,000×g pellet is resuspended in 1 ml of buffer A, Dounce homogenized, and finally subjected to polytron mixing (30 seconds). Membrane protein (25 μl, 5 μg) is mixed with WGA SPA beads (Amersham) and stirred for 1 h. […] (final concentrations: beads, 200 μg/well; protein, 5 μg/well; [^125I] probe, 0 08 nM/well (17 nCi/well). The plates are shaken for 2 h before reading on a Microbeta plate reader. Non-specific binding is determined by the addition of 10 μM cold L-691,831 compound.

[2] = tested on: synthesis of LTB4 in human whole blood; test: Human whole blood assay (inhibition of LTB4 synthesis, calcimycin stimulated); type: cell-based; settings: heparinized human whole blood, calcimycin 20 μM, plasma LTB4
Experimental: Compounds are additionally tested in a human whole blood assay to determine their ability to inhibit the synthesis of LTB4 in a cellular system. Compounds are combined with heparinized human whole blood and incubated for 15 minutes at 37° C. Calcimycin (20 μM final, prepared in phosphate-buffered saline, pH 7.4) is then added and the mixture is incubated for another 30 minutes at 37° C. The samples are centrifuged for 5 min at low speed (1500×g) and the plasma layer is removed. Plasma LTB4 concentrations are then measured using an antibody-based homogenous time-resolved fluorescence method (CisBio, Bedford, Mass.).

[3] = membranes of sf9 cells expressing recombinant human FLAP, [125I]L-691,831 probe, read-out: FLAP binding IC50

Row | SMILES | IC50 [1, 3] | IC50 [2] | IC50 [1]
1 | CC(C)C(C)(c1ccc(-c2cnc(N)nc2)cc1)c1noc(C2CCNCC2)n1 (stereo not shown) [Example 110, 5-(4-{3-methyl-2-[5-(piperidin-4-yl)-1,2,4-oxadiazol-3-yl]butan-2-yl}phenyl)pyrimidin-2-amine] | 190 nM | 2800 nM | 
2 | CC(C)C(C)(c1ccc(-c2cnc(N)nc2)cc1)c1noc(-c2ccc(Cl)nc2)n1 (stereo not shown) [Example 7, 5-(4-{2-[5-(6-chloropyridin-3-yl)-1,2,4-oxadiazol-3-yl]-3-methylbutan-2-yl}phenyl)pyrimidin-2-amine] | 3.1 nM | 560 nM | 
3 | COCCn1cc(-c2nc([C@@](C)(c3ccc(-c4cnc(N)nc4)cc3)C3CCC3)no2)cn1 [Example 100, 5-{4-[(1R)-1-cyclobutyl-1-{5-[1-(2-methoxyethyl)-1H-pyrazol-4-yl]-1,2,4-oxadiazol-3-yl}ethyl]phenyl}pyrimidin-2-amine] | 2.3 nM | 110 nM | 
4 | CN(C)C(=O)Cn1cc(-c2nc([C@](C)(c3ccc(-c4cnc5c(c4)OCCN5)cc3)C3CC3)no2)cn1 [Example 255, 2-[4-(3-{(S)-1-Cyclopropyl-1-[4-(3,4-dihydro-2H-pyrido[3,2-b][1,4]oxazin-7-yl)-phenyl]-ethyl}-[1,2,4]oxadiazol-5-yl)-pyrazol-1-yl]-N,N-dimethyl-acetamide] | 15 nM | 1800 nM | 
5 | CC(C)C(C)(c1ccc(-c2cnc(N)nc2)cc1)c1noc(-c2cccnc2)n1 (stereo not shown) [Example 3, 5-(4-{3-methyl-2-[5-(pyridin-3-yl)-1,2,4-oxadiazol-3-yl]butan-2-yl}phenyl)pyrimidin-2-amine] | 1.7 nM | 94 nM | 
6 | CC(C)[C@](C)(c1ccc(-c2cnc(N)nc2)cc1)c1noc(-c2cnn(C)c2)n1 (single isomer, unassigned) [Example 46] |  | 33 nM | 1.6 nM
7 | C[C@@](c1ccc(-c2cnc(N)nc2)cc1)(c1noc(-c2cn[nH]c2)n1)C1CC1 [Example 48, 5-(4-{(R)-1-cyclopropyl-1-[5-(1H-pyrazol-4-yl)-[1,2,4]oxadiazol-3-yl]-ethyl}-phenyl)-pyrimidin-2-ylamine] | 6.8 nM | 190 nM | 
8 | CC(c1ccc(-c2cnc(N)nc2)cc1)(c1noc(-c2cnn(C3COC3)c2)n1)C1CC1 (stereo not shown) [Example 43, 5-[4-(1-cyclopropyl-1-{5-[1-(oxetan-3-yl)-1H-pyrazol-4-yl]-1,2,4-oxadiazol-3-yl}ethyl)phenyl]pyrimidin-2-amine] | 2.5 nM | 30 nM | 
9 | COCCOCc1nc(C(C)(c2ccc(-c3cnc(N)nc3)cc2)C(C)C)no1 (stereo not shown) [Example 229, 5-(4-{1-[5-(2-Methoxy-ethoxymethyl)-[1,2,4]oxadiazol-3-yl]-1,2-dimethyl-propyl}-phenyl)-pyrimidin-2-ylamine] | 99 nM | 550 nM | 
10 | CC(C)C(C)(c1ccc(-c2cnc(N)nc2)cc1)c1noc(N2CCN(CC(=O)O)CC2)n1 (stereo not shown) [Example 272, [4-(3-{1-[4-(2-Amino-pyrimidin-5-yl)-phenyl]-1,2-dimethyl-propyl}-[1,2,4]oxadiazol-5-yl)-piperazin-1-yl]-acetic acid] | 280 nM | > 5000 nM | 
11 | CC(C)C(C)(c1ccc(-c2cnc(N)nc2)cc1)c1noc(CCC(=O)O)n1 (stereo not shown) [Example 94, 3-(3-{2-[4-(2-aminopyrimidin-5-yl)phenyl]-3-methylbutan-2-yl}-1,2,4-oxadiazol-5-yl)propanoic acid] | 350 nM | > 5000 nM | 
12 | Cc1ccc(-c2nc(C(C)(c3ccc(-c4cnc(N)nc4)cc3)C(C)C)no2)c(O)n1 (stereo not shown) [Example 157, 3-(3-{2-[4-(2-aminopyrimidin-5-yl)phenyl]-3-methylbutan-2-yl}-1,2,4-oxadiazol-5-yl)-6-methylpyridin-2-ol] | 3.3 nM | 760 nM | 
13 | Cc1ncsc1-c1nc(C(C)(c2ccc(-c3cnc(N)nc3)cc2)C(C)C)no1 (stereo not shown) [Example 141, 5-(4-{3-methyl-2-[5-(4-methyl-1,3-thiazol-5-yl)-1,2,4-oxadiazol-3-yl]butan-2-yl}phenyl)pyrimidin-2-amine] | 1.5 nM | 530 nM | 
14 | Cc1ncoc1-c1nc(C(C)(c2ccc(-c3cnc(N)nc3)cc2)C(C)C)no1 (stereo not shown) [Example 140, 5-(4-{3-methyl-2-[5-(4-methyl-1,3-oxazol-5-yl)-1,2,4-oxadiazol-3-yl]butan-2-yl}phenyl)pyrimidin-2-amine] | 4.1 nM | 710 nM | 
15 | COCCn1cc(-c2nc(C(C)(c3ccc(-c4cnc(N)nc4)cc3)C3CC3)no2)cn1 (stereo not shown) [Example 30, 5-[4-(1-cyclopropyl-1-{5-[1-(2-methoxyethyl)-1H-pyrazol-4-yl]-1,2,4-oxadiazol-3-yl}ethyl)phenyl]pyrimidin-2-amine] | 5 nM | 60 nM | 
16 | CC(c1ccc(-c2ccc(N)nc2)cc1)(c1noc(N2CCC(O)CC2)n1)C1CC1 (stereo not shown) [Example 248, 1-(3-{1-[4-(6-Amino-pyridin-3-yl)-phenyl]-1-cyclopropyl-ethyl}-[1,2,4]oxadiazol-5-yl)-piperidin-4-ol] | 10 nM | 80 nM | 
17 | COCCNc1cnc(-c2nc([C@](C)(c3ccc(-c4cnc(N)nc4)cc3)C(C)C)no2)cn1 [Example 124, 5-{4-[(2S)-2-(5-{5-[(2-methoxyethyl)amino]pyrazin-2-yl} 1,2,4-oxadiazol-3-yl)-3-methylbutan-2-yl]phenyl}pyrimidin-2-amine] | 2.3 nM | 31 nM | 
18 | CC(C)C(C)(c1ccc(-c2cnc(N)nc2)cc1)c1noc(CC(C)(C)C(=O)O)n1 (stereo not shown) [Example 93, 3-(3-{2-[4-(2-aminopyrimidin-5-yl)phenyl]-3-methylbutan-2-yl}-1,2,4-oxadiazol-5-yl)-2,2-dimethylpropanoic acid] | 240 nM | > 5000 nM | 
19 | C[C@](c1ccc(-c2cnc(N)nc2)cc1)(c1noc(-c2cnc(N3CCNCC3)cn2)n1)C1CC1 [Example 267, 5-(4-{(S)-1-Cyclopropyl-[5-(3,4,5,6-tetrahydro-2H-[1,2′]bipyrazinyl-5′-yl)-[1,2,4]oxadiazol-3-yl]-ethyl}-phenyl)-pyrimidin-2-ylamine] | 12 nM | 390 nM | 
20 | CC(C)C(C)(c1ccc(-c2cnc(N)nc2)cc1)c1noc(C2CCCC(=O)N2C)n1 (stereo not shown) [Example 166, 6-(3-{2-[4-(2-aminopyrimidin-5-yl)phenyl]-3-methylbutan-2-yl}-1,2,4-oxadiazol-5-yl)-1-methylpiperidin-2-one] | 26 nM | 2400 nM | 
21 | COCCc1nc(C(C)(c2ccc(-c3cnc(N)nc3)cc2)C(C)C)no1 (stereo not shown) [Example 232, 5-(4-{1-[5-(2-Methoxy-ethyl)-[1,2,4]oxadiazol-3-yl]-1,2-dimethyl-propyl}-phenyl)-pyrimidin-2-ylamine] | 37 nM | 370 nM | 
22 | CC(c1ccc(-c2cnc(N)nc2)cc1)(c1noc(-c2cn(C3COC3)cn2)n1)C1CC1 (stereo not shown) [Example 207, 5-(4-{1-Cyclopropyl-1-[5-(1-oxetan-3-yl-1H-imidazol-4-yl)-[1,2,4]oxadiazol-3-yl]-ethyl}-phenyl)-pyrimidin-2-ylamine] | 92 nM | 700 nM | 
23 | CC(C)C(C)(c1ccc(-c2cnc(N)nc2)cc1)c1noc(C(=O)N2CCNCC2)n1 (stereo not shown) [Example 84, (3-{2-[4-(2-aminopyrimidin-5-yl)phenyl]-3-methylbutan-2-yl}-1,2,4-oxadiazol-5-yl)(piperazin-1-yl)methanone] | 120 nM | 1700 nM | 
